Data reported in patent publication US20050069496A1, “Methods of screening, determining, developing and utilizing negative cross resistance toxins” (priority 2001, published 2005).
Read-outs that look alike come from different tables or passages of the source. Marks after values point to notes of the source that are not given here.

Key:
[1] = test system: Mycosphaeralla graminicola Wild type and Tri R1 resistant strains; test: Cross-resistance comparison of resistant and wild type fungal lines; assay type: cell-based; details: for Resistance Ratio: Tri R1 resistant versus wild type; for Resistance Type: compared to resistance to Triadimenol, not tested statistically; for Possible Resistance Type: after Bonferroni correction
Source text: In one embodiment, large-scale screens are utilized to determine NCR toxins that can be used against fungicide resistance. For such a screen, there will be one of three outcomes: (1) positive cross-resistance, (2) neutral (no cross-resistance), and (3) negative cross-resistance. Table 3 illustrates the EC50 for each toxin as given on two lines of Mycosphaeralla graminicola. The EC50 is the effective concentration that will kill fifty percent of the organisms in a test population. One line is Triadimenol susceptible and the other line is resistant to this compound. An estimate is made of the nature of resistance of these two lines to nine other toxins. The resistance is defined as (i) positive cross-resistance, (ii) negative cross-resistance or (iii) no cross-resistance (neutral) as compared to the resistance to Triadimenol (1RS,2RS;1RS,2RS)-1-(4chlorophenoxy)-3,3-dimethyl-1-(1H-1,2,4-trizol-1-yl) butan-1-o. Such a comparison is useful in a large-scale screen for NCR toxins for fungicides.
Three of the compounds listed in Table 3 are indicated as potential NCR toxins (Triflumizole, Ferarimol, and Nuarimol). In one embodiment, screening resources are used efficiently, i.e. the potential for identifying false-positives is minimized, by focusing on investigating potential NCR toxins through a test with a correction factor, such as a Bonferroni correction. Alternatively, other correction factors can be used including, but not limited to, Duncan's method. […] Where differential toxicity occurs between the two fungal lines on a given toxin, a difference in toxicity between the two lines is determined. If the fungal line that was resistant to the first toxin (e.g. Triadimenol) is now more susceptible to the new toxin (e.g. Triflumizole, Ferarimol, or Nuarimol) potential NCR toxin pairs are identified.
Differences between toxins, in terms of NCR activity, may be indicated where such differences may not truly exist (type I error in statistical hypothesis testing). In the present example, the confidence interval is extended using, for example, Bonferroni correction, which is needed to control for false positives in detection of NCR toxins in large-screen tests. A NCR factor is declared if the second toxin requires a lower dosage to kill the resistant line as compared to the wild type fungal line or lines. The consequences of a failure to use Bonferroni correction normally results in higher numbers of false positives in a large-scale screen. Toxins that are selected on the basis of no correction may still be considered as putative NCR toxins, but deserving less consideration than those identified using the correction method. A Bonferroni correction is thus performed on the three putative NCR toxins (and the reference toxin) to determine if one of the toxins is a NCR factor.
Table 4 illustrates the Bonferroni corrected data (from Table 3 above) of the reference compound (Triadimenol) and the three putative NCR toxins for fungicide resistance. The correction was made based on four compounds tested, each with minimally five doses to calculate the effective concentration fifty (EC50).

[2] = test system: Canton-S (DDT susceptible flies) and para^tsl (DDT resistant flies); test: Initial screen of DDT and 8 pyrethroids, Canton-S versus para^tsl flies; assay type: in vivo, Drosophila melanogaster; details: for Fly Line Preferentially Killed by the Toxin: across the doses
Experimental: A test was conducted utilizing an initial screen of DDT and 8 pyrethroids against Canton-S (DDT susceptible flies) and para^tsl (DDT resistant flies). […]

Canton-S flies = test: Fly mortality bioassay, Canton-S; assay type: in vivo, Drosophila melanogaster; details: for Resistance Ratio: Canton-S, LD50 over LD50 of para^tsl males
Experimental: (§1) A test was conducted utilizing an initial screen of DDT and 8 pyrethroids against Canton-S (DDT susceptible flies) and para^tsl (DDT resistant flies).
(§2) As a further step in the test, heterozygotes were tested with either deltamethrin or DDT.

para^tsl flies = test: Fly mortality bioassay, para^tsl; assay type: in vivo, Drosophila melanogaster; details: for Resistance Ratio: Para^tsl
Experimental: as §1, §2

heterozygous fly lines [3] = test: Fly mortality bioassay, heterozygotes; assay type: in vivo, Drosophila melanogaster
Experimental: as §2
An additional test was conducted to determine if DDT and deltamethrin applied at the same time killed the heterozygotes.
FIG. 17 graphically illustrates the application of deltamethrin by itself 220, the application of DDT by itself 222, and the application of both deltamethrin and DDT at the same time 224 to para^tsl flies, Canton-S flies, and heterozygotes.

TF-FVIIa complex = TF-FVIIa complex (Homo sapiens, UniProt P08709); details: Inhibitor concentration ± standard error; read-out: FX activation (IC50); cited from earlier work
heterozygous fly lines [4] = details: stated as known; cited from earlier work
[5] = test system: Drosophila sodium channel, para, resistance mutation line; details: mutation not observed in nature; cited from earlier work

Sequence of TF-FVIIa complex (P08709 213-466 limits assumed): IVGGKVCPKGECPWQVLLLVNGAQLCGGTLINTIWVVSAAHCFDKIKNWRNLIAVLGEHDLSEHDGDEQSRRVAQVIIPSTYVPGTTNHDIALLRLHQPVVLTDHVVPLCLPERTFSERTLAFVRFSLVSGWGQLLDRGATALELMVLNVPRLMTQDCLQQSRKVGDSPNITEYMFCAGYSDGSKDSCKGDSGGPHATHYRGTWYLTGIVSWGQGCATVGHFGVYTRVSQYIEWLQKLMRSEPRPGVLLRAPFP
Sequence of TF-FVIIa complex (P08709 61-212 limits assumed): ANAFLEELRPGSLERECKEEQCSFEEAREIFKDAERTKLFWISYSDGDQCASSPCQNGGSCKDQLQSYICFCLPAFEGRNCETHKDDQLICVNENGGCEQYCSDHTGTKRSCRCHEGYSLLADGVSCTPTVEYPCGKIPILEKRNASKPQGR
Sequence of TF-FVIIa complex (P13726 33-295 partner): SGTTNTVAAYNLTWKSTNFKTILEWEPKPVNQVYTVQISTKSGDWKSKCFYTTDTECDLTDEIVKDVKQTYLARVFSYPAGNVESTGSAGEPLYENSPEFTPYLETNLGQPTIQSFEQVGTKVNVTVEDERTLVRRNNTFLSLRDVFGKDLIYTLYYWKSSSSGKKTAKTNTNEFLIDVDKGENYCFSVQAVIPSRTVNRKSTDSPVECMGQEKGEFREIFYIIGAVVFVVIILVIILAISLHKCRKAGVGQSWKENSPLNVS

## CC(C)(C)C(O)(CCc1ccc(Cl)cc1)Cn1cncn1 (stereo not shown) [Tebuconazole]
[1]
  Resistance Ratio: 3.3
  Resistance Type: Positive

## CC1(C)C(C=C(Cl)Cl)C1C(=O)OCc1cccc(Oc2ccccc2)c1 (stereo not shown) [Permethrin]
[2]
  Fly Line Preferentially Killed by the Toxin: Para^tsl
[2]; listed as permethrin
  Fly Line Preferentially Killed by the Toxin: more toxic to para^tsl flies than to Canton-S flies

## CC(C)=CC1C(C(=O)OCc2coc(Cc3ccccc3)c2)C1(C)C (stereo not shown) [Resmethrin]
[2]
  Fly Line Preferentially Killed by the Toxin: Para^tsl

## CCCN(CCOc1c(Cl)cc(Cl)cc1Cl)C(=O)n1ccnc1 [Prochloraz]
[1]
  Resistance Ratio: 3.3
  Resistance Type: Positive

## Cc1c(F)c(F)c(COC(=O)[C@H]2[C@@H](/C=C(\Cl)C(F)(F)F)C2(C)C)c(F)c1F [PP993]
[2]
  Fly Line Preferentially Killed by the Toxin: Canton-S

## CC1(C)[C@H](C(=O)O[C@H](C#N)c2cccc(Oc3ccccc3)c2)[C@@H]1C=C(Br)Br [Deltamethrin]
Canton-S flies; Female
  Resistance Ratio: 24.7
Canton-S flies; Male
  Resistance Ratio: 9.9
Canton-S flies; Dose 0.2
  Percent Dead Cantons-S: 31.7%
Canton-S flies; Dose 0.5
  Percent Dead Cantons-S: 56.7%
Canton-S flies; Dose 1
  Percent Dead Cantons-S: 26.7%
Canton-S flies; Dose 2
  Percent Dead Cantons-S: 93.3%
Canton-S flies; Dose 5
  Percent Dead Cantons-S: 100%
Canton-S flies; Dose 8
  Percent Dead Cantons-S: 96.7%
Canton-S flies; Dose 10
  Percent Dead Cantons-S: 98.3%
Canton-S flies; Dose 15
  Percent Dead Cantons-S: 100%
Canton-S flies; Dose 20
  Percent Dead Cantons-S: 98.3%
[2]
  Fly Line Preferentially Killed by the Toxin: Para^tsl
[2]; listed as deltamethrin
  Fly Line Preferentially Killed by the Toxin: more toxic to para^tsl flies than to Canton-S flies
[2]; individual doses
  Preferential killing when tested by individual doses: preferentially killed para^tsl flies
para^tsl flies; Dose 0.2
  Percent Dead Para^tsl: 98.3%
para^tsl flies; Dose 0.5
  Percent Dead Para^tsl: 100%
para^tsl flies; Dose 1
  Percent Dead Para^tsl: 85.0%
para^tsl flies; Dose 2
  Percent Dead Para^tsl: 100%
para^tsl flies; Dose 5
  Percent Dead Para^tsl: 100%
para^tsl flies; Dose 8
  Percent Dead Para^tsl: 100%
para^tsl flies; Dose 10
  Percent Dead Para^tsl: 98.3%
para^tsl flies; Dose 15
  Percent Dead Para^tsl: 100%
para^tsl flies; Dose 20
  Percent Dead Para^tsl: 100%
para^tsl flies; Female, LD50 over LD50 of para^tsl males
  Resistance Ratio: 1.4
para^tsl flies; Male, denominator line
  Resistance Ratio: 1.0*
Heterozygous fly lines [3]; Heterozygotes, Female, LD50 over LD50 of para^tsl males
  Resistance Ratio: 21.5
Heterozygous fly lines [3]; from Table 8
  Resistance of heterozygotes: resistant to deltamethrin and resistance is dominant

## CC1(C)C(C=C(Cl)Cl)C1C(=O)OC(C#N)c1ccc(F)c(Oc2ccccc2)c1 (stereo not shown) [Tempo]
[2]
  Fly Line Preferentially Killed by the Toxin: Para^tsl

## C=CCC1=C(C)C(OC(=O)C2C(C=C(C)C)C2(C)C)CC1=O [D-trans allethrin]
[2]
  Fly Line Preferentially Killed by the Toxin: Neither

## consensus sequence from the hard randomization, C (MEEWEVLCWTWETCERGEGQ), Z-domain fusion [C-Z]
TF-FVIIa complex
  IC50: 5.9 ± 0.9 nM

## CC1(C)[C@H](/C=C(\Cl)C(F)(F)F)[C@@H]1C(=O)O[C@@H](C#N)c1cccc(Oc2ccccc2)c1 [PP321]
[2]
  Fly Line Preferentially Killed by the Toxin: Neither

## O=c1c2cc(F)ccc2nc(-n2cncn2)n1-c1ccc(Cl)cc1Cl [Fluquinconazole]
[1]
  Resistance Ratio: 0.4
  Resistance Type: Negative

## CC(Cc1ccc(C(C)(C)C)cc1)CN1C[C@@H](C)O[C@@H](C)C1 (stereo partly shown) [Fenpropimorph]
[1]
  Resistance Ratio: 0.9
  Resistance Type: Neutral

## C=CCOC(Cn1ccnc1)c1ccc(Cl)cc1Cl (stereo not shown) [Imazalil]
[1]
  Resistance Ratio: 5.0
  Resistance Type: Positive

## CCCOC/C(=N\c1ccc(Cl)cc1C(F)(F)F)n1ccnc1 [Triflumizole]
[1]
  Resistance Ratio: 0.3
  Possible Resistance Type: Neutral (n.s.)†
  Resistance Type: Negative

## CC(C)(C)C(O)C(Oc1ccc(Cl)cc1)n1cncn1 (stereo not drawn) [Triadimenol, (1RS,2RS;1RS,2RS)-1-(4chlorophenoxy)-3,3-dimethyl-1-(1H-1,2,4-trizol-1-yl) butan-1-o]
[1]
  Resistance Ratio: 31

## CC(C)[C@H](C(=O)O[C@H](C#N)c1cccc(Oc2ccccc2)c1)c1ccc(Cl)cc1 [Asana]
[2]
  Fly Line Preferentially Killed by the Toxin: Neither

## OC(c1ccc(F)cc1)(c1cncnc1)c1ccccc1Cl (stereo not shown) [Nuarimol]
[1]
  Resistance Ratio: 0.4
  Possible Resistance Type: Negative
  Resistance Type: Negative

## Clc1ccc(C(c2ccc(Cl)cc2)C(Cl)(Cl)Cl)cc1 [DDT]
Canton-S flies; Dose 0.2
  Percent Dead Cantons-S: 11.7%
Canton-S flies; Dose 0.5
  Percent Dead Cantons-S: 8.3%
Canton-S flies; Dose 1
  Percent Dead Cantons-S: 6.7%
Canton-S flies; Dose 2
  Percent Dead Cantons-S: 15.0%
Canton-S flies; Dose 5
  Percent Dead Cantons-S: 35.0%
Canton-S flies; Dose 8
  Percent Dead Cantons-S: 48.3%
Canton-S flies; Dose 10
  Percent Dead Cantons-S: 43.3%
Canton-S flies; Dose 15
  Percent Dead Cantons-S: 75.0%
Canton-S flies; Dose 20
  Percent Dead Cantons-S: 71.7%
[2]
  Fly Line Preferentially Killed by the Toxin: Canton-S
para^tsl flies; Dose 0.2
  Percent Dead Para^tsl: 13.3%
para^tsl flies; Dose 0.5
  Percent Dead Para^tsl: 0%
para^tsl flies; Dose 1
  Percent Dead Para^tsl: 0%
para^tsl flies; Dose 2
  Percent Dead Para^tsl: 3.3%
para^tsl flies; Dose 5
  Percent Dead Para^tsl: 6.7%
para^tsl flies; Dose 8
  Percent Dead Para^tsl: 23.3%
para^tsl flies; Dose 10
  Percent Dead Para^tsl: 13.3%
para^tsl flies; Dose 15
  Percent Dead Para^tsl: 8.3%
para^tsl flies; Dose 20
  Percent Dead Para^tsl: 6.7%
Heterozygous fly lines [4]
  Resistance of heterozygotes: heterozygotes are resistant to DDT

## OC(c1ccc(Cl)cc1)(c1cncnc1)c1ccccc1Cl (stereo not shown) [Ferarimol]
[1]
  Resistance Ratio: 0.3
  Possible Resistance Type: Negative
  Resistance Type: Negative

## C[Si](Cn1cncn1)(c1ccc(F)cc1)c1ccc(F)cc1 [Flusilazole]
[1]
  Resistance Ratio: 4.2
  Resistance Type: Positive

B1: AaIT: a protein isolated from Scorpion toxin (protein, UniProt P01497 19-88, looked up)
Beta-insect excitatory toxin 1: KKNGYAVDSSGKAPECLLSNYCNNECTKVHYADKGYCCLLSCYCFGLNDDKKVLEISDTRKSYCDTTIIN
[5]
  NCR in a resistance mutation line: no NCR
